# Read-outs that look alike come from different tables or passages of the source.
# Tests used:
# [1] = target: T1, TRKA (Homo sapiens, UniProt P04629); conditions: cited from earlier work
# T1 construct: purchased Reaction Biology Corp
# [2] = target: T2, STK25/YSK1 (Homo sapiens, UniProt O00506); conditions: cited from earlier work
# T2 construct: purchased Reaction Biology Corp
# [3] = target: T3, SPHK2 (Homo sapiens, UniProt Q9NRA0); assay: Kinase panel assay (lipid kinase); type: biochemical; conditions: 30 μM compound, ATP 10 μM, duplicates Data 1/Data 2
# T3 construct: purchased Reaction Biology Corp
# [4] = target: T4, TLK1 (Homo sapiens, UniProt Q9UKI8); assay: Kinase panel assay (radiolabelled); type: biochemical; conditions: ATP 10 μM
# T4 construct: purchased Reaction Biology Corp
# T4 sequence (Q9UKI8 1-766): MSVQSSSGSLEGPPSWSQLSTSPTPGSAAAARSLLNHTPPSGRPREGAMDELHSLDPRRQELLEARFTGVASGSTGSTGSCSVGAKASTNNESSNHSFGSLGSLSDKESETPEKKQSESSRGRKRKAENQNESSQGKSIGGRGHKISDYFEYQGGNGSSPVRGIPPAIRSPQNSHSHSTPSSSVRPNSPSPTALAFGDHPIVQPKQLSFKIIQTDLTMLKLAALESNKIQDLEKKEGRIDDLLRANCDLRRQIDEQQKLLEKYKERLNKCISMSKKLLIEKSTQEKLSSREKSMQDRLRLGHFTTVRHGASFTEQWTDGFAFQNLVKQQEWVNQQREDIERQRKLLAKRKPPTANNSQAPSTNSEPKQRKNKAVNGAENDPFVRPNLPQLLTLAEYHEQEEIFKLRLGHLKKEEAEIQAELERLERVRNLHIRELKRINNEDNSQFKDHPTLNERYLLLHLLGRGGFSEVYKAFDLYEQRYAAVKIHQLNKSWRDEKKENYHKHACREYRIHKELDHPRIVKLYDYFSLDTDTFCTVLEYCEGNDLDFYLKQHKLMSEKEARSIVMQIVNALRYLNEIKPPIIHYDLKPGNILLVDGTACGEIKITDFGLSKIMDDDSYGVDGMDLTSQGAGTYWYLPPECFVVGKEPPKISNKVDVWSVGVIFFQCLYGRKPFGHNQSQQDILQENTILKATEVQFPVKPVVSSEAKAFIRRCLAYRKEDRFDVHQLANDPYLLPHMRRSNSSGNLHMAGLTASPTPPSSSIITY
# [5] = target: T5, GSK3b (Homo sapiens, UniProt P49841); assay: Kinase panel assay (radiolabelled); type: biochemical
# T5 construct: purchased Reaction Biology Corp
# [6] = target: T1, TRKA; assay: Kinase panel assay (radiolabelled); type: biochemical; conditions: ATP 10 μM
# [7] = target: T6, PI3K (p110a(E542K)/p85a) (Homo sapiens, UniProt P42336, E542K); assay: Kinase panel assay (lipid kinase); type: biochemical; conditions: 30 μM compound, ATP 10 μM, duplicates Data 1/Data 2
# T6 construct: purchased Reaction Biology Corp
# [8] = target: T7, EEF2K (Homo sapiens, UniProt O00418); assay: Kinase panel assay (radiolabelled); type: biochemical; conditions: 30 μM compound, ATP 10 μM, duplicates Data 1/Data 2
# T7 construct: purchased Reaction Biology Corp
# [9] = target: T8, TRKB (Homo sapiens, UniProt Q16620); assay: Kinase panel assay (radiolabelled); type: biochemical; conditions: ATP 10 μM
# T8 construct: purchased Reaction Biology Corp
# [10] = target: T9, PDK3/PDHK3 (Homo sapiens, UniProt Q15120); assay: Kinase panel assay (radiolabelled); type: biochemical; conditions: 30 μM compound, ATP 10 μM, duplicates Data 1/Data 2
# T9 construct: purchased Reaction Biology Corp
# Protocol: (§1) Every inhibitory activity of tested compounds was measured by radiolabelled method of Reaction Biology Corp). The radiolabelled ATP ([γ-^33P] ATP) replaced a substrate with ^33P-phosphorylated substrate so that the activity of a kinase was measured from the radiolabelled phosphorylated substrate. Kinase panel assay was tested at 30 μM testing compounds with an ATP concentration of 10 μM and a substrate concentration of 10 μM. % Residual activity against GSK3β was measured at 10 uM compounds 1 and 2. […] Curve fits of control compounds were performed where the enzyme activities at the highest concentration of compounds were less than 65%. The concentration of DMSO was controlled and raw data, % kinase activity was calculated relative to DMSO controls.
# [11] = target: T10, PDK2/PDHK2 (Homo sapiens, UniProt Q15119); assay: Kinase panel assay (radiolabelled); type: biochemical; conditions: 30 μM compound, ATP 10 μM, duplicates Data 1/Data 2
# T10 construct: purchased Reaction Biology Corp
# Protocol: as §1
# [12] = target: T11, PDK4/PDHK4 (Homo sapiens, UniProt Q16654); assay: Kinase panel assay (radiolabelled); type: biochemical; conditions: 30 μM compound, ATP 10 μM, duplicates Data 1/Data 2
# T11 construct: purchased Reaction Biology Corp
# Protocol: as §1
# [13] = target: T12, EIF2AK1 (Homo sapiens, UniProt Q9BQI3); assay: Kinase panel assay (radiolabelled); type: biochemical; conditions: 30 μM compound, ATP 10 μM, duplicates Data 1/Data 2
# T12 construct: purchased Reaction Biology Corp
# Protocol: as §1
# [14] = target: T13, TRPM7/CHAK1 (Homo sapiens, UniProt Q96QT4); assay: Kinase panel assay (radiolabelled); type: biochemical; conditions: 30 μM compound, ATP 10 μM, duplicates Data 1/Data 2
# T13 construct: purchased Reaction Biology Corp
# Protocol: as §1
# [15] = target: T14, PDK1/PDHK1 (Homo sapiens, UniProt Q15118); assay: Kinase panel assay (radiolabelled); type: biochemical; conditions: 30 μM compound, ATP 10 μM, duplicates Data 1/Data 2
# T14 construct: purchased Reaction Biology Corp
# Protocol: as §1
# [16] = target: T2, STK25/YSK1; assay: Kinase panel assay (radiolabelled); type: biochemical; conditions: ATP 10 μM
# [17] = tested on: TNF-α; assay: Secreted TNF-α ELISA in LPS-induced BV-2 cells; type: cell-based, murine
# Protocol: To evaluate the secreted level of Prostaglandin E2 (PGE2), Tumor necrosis factor (TNF-α), Interleukin (IL-6), Interleukin (IL-1β), BV2 cells were seeded in a 6 well plate at the density of 1.5 × 10^6 cells/well in DMEM and incubated for 24 h. Seeded cells sere pretreated and, activated with LPS for next 24 h. conditioned medium from treated cells were collected and stored at -80 degree for longer period of time. The amount of TNF-α, IL-1β, PGE2,and IL-6 were evaluated using the competitive enzyme immunoassay kit. PGE2 kit were obtained from (Cayman Chemical, Ann Arbor, MI, USA) and TNF-α, IL-1β, and IL-6 were measured using ELISA development kits (R&D Systems, Minneapolis, MN, USA). All the protocol was exactly followed as written in the manual.
# [18] = target: T15, PI3Kb (p110b/p85a) (Homo sapiens, UniProt P42338); assay: Kinase panel assay (lipid kinase); type: biochemical; conditions: 30 μM compound, ATP 10 μM, duplicates Data 1/Data 2
# T15 construct: purchased Reaction Biology Corp
# [19] = target: T16, EIF2AK4 (Homo sapiens, UniProt Q9P2K8); assay: Kinase panel assay (radiolabelled); type: biochemical; conditions: 30 μM compound, ATP 10 μM, duplicates Data 1/Data 2
# T16 construct: purchased Reaction Biology Corp
# [20] = read-out: % Enzyme Activity (relative to DMSO controls)
# [21] = 30 μM compound, duplicates Data 1/Data 2
# [22] = 30 μM compound, duplicates Data 1/Data 2, read-out: % Enzyme Activity (relative to DMSO controls)
# [23] = 30 μM, average ± SD, read-out: % Residual Activity at 30 μM
# T5 sequence (P49841 whole entry): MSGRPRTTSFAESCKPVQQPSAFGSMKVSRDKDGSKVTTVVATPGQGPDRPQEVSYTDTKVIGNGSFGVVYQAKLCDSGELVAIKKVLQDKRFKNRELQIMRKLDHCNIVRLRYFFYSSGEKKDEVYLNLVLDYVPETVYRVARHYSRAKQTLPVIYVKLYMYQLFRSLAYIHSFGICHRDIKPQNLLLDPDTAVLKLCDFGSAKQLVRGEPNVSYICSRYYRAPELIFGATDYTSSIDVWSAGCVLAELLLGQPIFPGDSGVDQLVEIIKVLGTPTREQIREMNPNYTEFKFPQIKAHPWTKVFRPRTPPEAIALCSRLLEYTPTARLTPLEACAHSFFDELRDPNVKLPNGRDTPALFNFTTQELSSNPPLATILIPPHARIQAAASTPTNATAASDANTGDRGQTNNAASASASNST
# T8 sequence (Q16620 32-822): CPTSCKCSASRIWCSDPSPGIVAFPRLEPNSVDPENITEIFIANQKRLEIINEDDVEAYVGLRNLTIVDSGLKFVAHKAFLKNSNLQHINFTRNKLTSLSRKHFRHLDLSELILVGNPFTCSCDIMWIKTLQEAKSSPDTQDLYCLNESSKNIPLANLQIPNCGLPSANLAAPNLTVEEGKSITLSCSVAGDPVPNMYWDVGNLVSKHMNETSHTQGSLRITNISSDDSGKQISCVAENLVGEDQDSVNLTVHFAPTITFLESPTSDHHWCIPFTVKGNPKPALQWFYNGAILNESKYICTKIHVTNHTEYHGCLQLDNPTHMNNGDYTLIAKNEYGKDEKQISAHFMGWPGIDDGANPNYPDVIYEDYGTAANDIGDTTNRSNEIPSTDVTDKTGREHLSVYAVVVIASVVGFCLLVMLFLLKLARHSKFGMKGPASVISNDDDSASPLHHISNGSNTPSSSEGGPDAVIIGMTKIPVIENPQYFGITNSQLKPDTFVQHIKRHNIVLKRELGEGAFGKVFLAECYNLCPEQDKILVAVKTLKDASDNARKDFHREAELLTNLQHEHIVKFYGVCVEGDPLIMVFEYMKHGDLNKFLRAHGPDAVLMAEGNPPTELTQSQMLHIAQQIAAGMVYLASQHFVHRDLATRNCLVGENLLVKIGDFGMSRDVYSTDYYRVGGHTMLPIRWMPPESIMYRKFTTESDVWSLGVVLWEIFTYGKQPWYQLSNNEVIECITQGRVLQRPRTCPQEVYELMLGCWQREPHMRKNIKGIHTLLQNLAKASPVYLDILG
# T1 sequence (P04629 33-796): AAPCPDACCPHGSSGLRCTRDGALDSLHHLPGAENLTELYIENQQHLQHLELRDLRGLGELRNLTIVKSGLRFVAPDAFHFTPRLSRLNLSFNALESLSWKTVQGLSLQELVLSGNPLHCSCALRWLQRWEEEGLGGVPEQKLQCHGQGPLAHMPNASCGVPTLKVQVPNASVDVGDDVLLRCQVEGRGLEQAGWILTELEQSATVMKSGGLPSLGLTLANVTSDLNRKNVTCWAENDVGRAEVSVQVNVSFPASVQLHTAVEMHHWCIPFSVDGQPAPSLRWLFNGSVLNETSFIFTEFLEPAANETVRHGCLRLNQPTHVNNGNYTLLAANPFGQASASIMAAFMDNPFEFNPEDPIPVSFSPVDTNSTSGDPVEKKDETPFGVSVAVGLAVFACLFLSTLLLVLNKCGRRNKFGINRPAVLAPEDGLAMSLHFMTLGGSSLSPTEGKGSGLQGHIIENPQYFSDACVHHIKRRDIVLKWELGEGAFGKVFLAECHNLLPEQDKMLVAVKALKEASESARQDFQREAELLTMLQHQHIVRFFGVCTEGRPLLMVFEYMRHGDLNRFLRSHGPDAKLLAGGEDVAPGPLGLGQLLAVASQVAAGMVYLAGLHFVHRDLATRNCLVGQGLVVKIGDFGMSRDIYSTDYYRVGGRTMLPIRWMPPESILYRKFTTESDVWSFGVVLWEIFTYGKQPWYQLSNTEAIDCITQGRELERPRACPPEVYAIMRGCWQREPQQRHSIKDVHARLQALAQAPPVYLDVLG
# T2 sequence (O00506 whole entry): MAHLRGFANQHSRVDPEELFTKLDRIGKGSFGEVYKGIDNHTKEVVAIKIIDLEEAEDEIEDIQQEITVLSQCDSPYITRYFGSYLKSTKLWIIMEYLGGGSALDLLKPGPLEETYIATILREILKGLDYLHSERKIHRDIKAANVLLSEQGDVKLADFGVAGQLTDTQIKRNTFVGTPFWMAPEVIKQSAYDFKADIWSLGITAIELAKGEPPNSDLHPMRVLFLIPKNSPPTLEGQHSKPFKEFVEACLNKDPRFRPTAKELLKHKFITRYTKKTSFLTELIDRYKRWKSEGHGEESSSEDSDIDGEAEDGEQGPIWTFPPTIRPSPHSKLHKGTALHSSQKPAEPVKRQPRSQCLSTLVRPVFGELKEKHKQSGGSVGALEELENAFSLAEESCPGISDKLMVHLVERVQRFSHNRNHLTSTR
# T16 sequence (Q9P2K8 whole entry): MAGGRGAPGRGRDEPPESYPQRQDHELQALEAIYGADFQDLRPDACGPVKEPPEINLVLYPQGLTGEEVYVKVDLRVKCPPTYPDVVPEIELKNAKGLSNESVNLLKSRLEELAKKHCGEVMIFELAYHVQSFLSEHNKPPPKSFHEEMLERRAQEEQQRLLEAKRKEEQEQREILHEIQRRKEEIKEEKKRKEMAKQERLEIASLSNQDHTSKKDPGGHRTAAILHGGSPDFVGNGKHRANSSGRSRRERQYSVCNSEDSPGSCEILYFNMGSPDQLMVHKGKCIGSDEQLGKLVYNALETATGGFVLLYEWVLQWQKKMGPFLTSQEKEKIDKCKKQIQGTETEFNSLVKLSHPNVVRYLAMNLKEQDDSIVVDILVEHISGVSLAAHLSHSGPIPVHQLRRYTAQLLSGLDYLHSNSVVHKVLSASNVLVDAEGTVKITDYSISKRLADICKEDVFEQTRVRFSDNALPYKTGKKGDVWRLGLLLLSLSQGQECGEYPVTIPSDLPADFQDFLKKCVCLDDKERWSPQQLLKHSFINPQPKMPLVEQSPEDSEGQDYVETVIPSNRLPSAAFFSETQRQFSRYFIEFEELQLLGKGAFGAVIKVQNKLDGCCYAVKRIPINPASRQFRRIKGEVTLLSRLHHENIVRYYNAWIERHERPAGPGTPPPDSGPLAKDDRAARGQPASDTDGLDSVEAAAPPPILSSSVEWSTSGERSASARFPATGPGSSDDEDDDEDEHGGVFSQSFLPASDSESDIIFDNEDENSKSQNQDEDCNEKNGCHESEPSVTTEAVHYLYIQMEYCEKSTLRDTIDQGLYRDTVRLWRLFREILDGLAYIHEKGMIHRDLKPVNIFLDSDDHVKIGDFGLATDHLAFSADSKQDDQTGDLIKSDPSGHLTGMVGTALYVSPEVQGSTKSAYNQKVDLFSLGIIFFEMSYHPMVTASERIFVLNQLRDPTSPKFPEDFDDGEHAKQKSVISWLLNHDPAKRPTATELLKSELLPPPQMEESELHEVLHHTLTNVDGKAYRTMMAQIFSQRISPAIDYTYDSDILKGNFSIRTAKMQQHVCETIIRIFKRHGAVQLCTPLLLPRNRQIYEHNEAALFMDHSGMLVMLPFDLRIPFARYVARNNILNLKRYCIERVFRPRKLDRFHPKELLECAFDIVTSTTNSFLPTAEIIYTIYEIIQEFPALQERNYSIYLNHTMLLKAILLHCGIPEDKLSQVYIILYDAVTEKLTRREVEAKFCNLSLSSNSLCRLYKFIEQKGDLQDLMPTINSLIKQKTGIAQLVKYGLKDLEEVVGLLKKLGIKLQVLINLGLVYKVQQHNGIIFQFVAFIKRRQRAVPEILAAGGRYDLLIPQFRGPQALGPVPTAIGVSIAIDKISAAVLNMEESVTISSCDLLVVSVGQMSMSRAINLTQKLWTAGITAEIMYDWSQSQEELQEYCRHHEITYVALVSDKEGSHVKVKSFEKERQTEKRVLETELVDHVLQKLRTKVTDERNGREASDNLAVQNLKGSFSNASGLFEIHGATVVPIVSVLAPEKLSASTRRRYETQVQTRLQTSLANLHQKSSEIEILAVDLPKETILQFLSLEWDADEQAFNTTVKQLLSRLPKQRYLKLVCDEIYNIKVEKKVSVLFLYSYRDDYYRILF
# T11 sequence (Q16654 whole entry): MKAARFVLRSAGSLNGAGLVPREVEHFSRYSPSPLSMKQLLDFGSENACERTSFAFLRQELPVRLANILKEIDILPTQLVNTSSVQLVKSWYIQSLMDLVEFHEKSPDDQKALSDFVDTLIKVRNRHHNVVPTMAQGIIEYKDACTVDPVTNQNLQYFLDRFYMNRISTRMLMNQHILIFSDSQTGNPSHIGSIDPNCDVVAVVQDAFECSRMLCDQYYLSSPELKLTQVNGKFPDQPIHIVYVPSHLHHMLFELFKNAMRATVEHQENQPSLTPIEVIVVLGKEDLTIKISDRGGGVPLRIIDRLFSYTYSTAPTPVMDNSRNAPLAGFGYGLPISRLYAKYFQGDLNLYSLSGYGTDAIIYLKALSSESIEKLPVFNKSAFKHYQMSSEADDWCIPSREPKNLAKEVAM
# T14 sequence (Q15118 29-436): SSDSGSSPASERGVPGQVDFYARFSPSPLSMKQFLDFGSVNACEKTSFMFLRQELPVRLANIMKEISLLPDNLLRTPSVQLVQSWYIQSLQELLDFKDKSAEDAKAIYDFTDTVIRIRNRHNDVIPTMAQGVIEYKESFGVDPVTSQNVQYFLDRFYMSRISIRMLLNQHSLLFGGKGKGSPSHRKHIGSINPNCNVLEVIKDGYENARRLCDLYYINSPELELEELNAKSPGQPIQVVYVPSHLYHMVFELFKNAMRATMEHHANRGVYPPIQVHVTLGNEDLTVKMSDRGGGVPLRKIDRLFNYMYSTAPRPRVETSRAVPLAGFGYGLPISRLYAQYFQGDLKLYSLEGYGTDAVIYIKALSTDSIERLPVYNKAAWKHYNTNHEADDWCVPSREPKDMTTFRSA
smiles,measurement,setting,value
O=C1C=CC2(C=C1)OCC(Cc1cc(C(F)(F)F)cc(C(F)(F)F)c1)C(=O)N2c1ccccc1 (racemic) [1c],% Residual Activity at 30 μM,[1],98.3 ± 0.1%
same,% Residual Activity at 30 μM,[2],66.9 ± 0.1%
"O=C1C=CC2(C=C1)OCC(Cc1cn(-c3cccc(Cl)c3)nn1)C(=O)N2c1ccccc1 (centres unmarked) [2d, 3-((1-(3-Chlorophenyl)-1H-1,2,3-triazol-4-yl)methyl)-5-phenyl-1-oxa-5-azaspiro[5.5]undeca-7,10-diene-4,9-dione]",% Enzyme Activity (relative to DMSO controls),[3],90.95%
same,remaining activity at 30 µM,[3]; [20],91.5%
same,% Enzyme Activity (relative to DMSO controls),[4]; [21],81.34%
same,remaining activity at 30 µM,[4]; [22],82.1%
same,remaining activity at 30 µM,[4]; [23],81.7 ± 0.5%
same,% Enzyme Activity (relative to DMSO controls),"[5]; 30 μM compound, ATP 10 μM, duplicates Data 1/Data 2",1.64%
same,remaining activity at 30 µM,"[5]; 30 μM compound, ATP 10 μM, duplicates Data 1/Data 2, read-out: % Enzyme Activity (relative to DMSO controls)",2.81%
same,remaining activity at 30 µM,"[5]; 30 μM, ATP 10 μM, average ± SD, read-out: % Residual Activity at 30 μM",2.2 ± 0.8%
same,inhibition at 30 µM,"[5]; 30 μM, read-out: inhibition of GSK-3β in 70-kinase panel",> 90%
same,% Enzyme Activity (relative to DMSO controls),[6]; [21],115.47%
same,remaining activity at 30 µM,[6]; [22],119%
same,remaining activity at 30 µM,[6]; [23],117 ± 2.6%
same,% Enzyme Activity (relative to DMSO controls),[7],100.20%
same,remaining activity at 30 µM,[7]; [20],103%
same,% Enzyme Activity (relative to DMSO controls),[8],101.96%
same,remaining activity at 30 µM,[8]; [20],103%
same,% Enzyme Activity (relative to DMSO controls),[9]; [21],101.29%
same,remaining activity at 30 µM,[9]; [22],103%
same,remaining activity at 30 µM,[9]; [23],102 ± 1.3%
same,% Enzyme Activity (relative to DMSO controls),[10],82.28%
same,remaining activity at 30 µM,[10]; [20],85.9%
same,% Enzyme Activity (relative to DMSO controls),[11],63.30%
same,remaining activity at 30 µM,[11]; [20],64.3%
same,% Enzyme Activity (relative to DMSO controls),[12],105.05%
same,remaining activity at 30 µM,[12]; [20],111%
same,% Enzyme Activity (relative to DMSO controls),[13],87.95%
same,remaining activity at 30 µM,[13]; [20],91.7%
same,% Enzyme Activity (relative to DMSO controls),[14],63.76%
same,remaining activity at 30 µM,[14]; [20],67.5%
same,% Enzyme Activity (relative to DMSO controls),[15],85.01%
same,remaining activity at 30 µM,[15]; [20],85.6%
same,% Enzyme Activity (relative to DMSO controls),[16]; [21],61.07%
same,remaining activity at 30 µM,[16]; [22],63.3%
same,remaining activity at 30 µM,[16]; [23],62.2 ± 1.6%
same,TNF-α level,[17],concentration-dependent manner
same,% Enzyme Activity (relative to DMSO controls),[18],86.58%
same,remaining activity at 30 µM,[18]; [20],86.3%
same,% Enzyme Activity (relative to DMSO controls),[19],102.49%
same,remaining activity at 30 µM,[19]; [20],104%
